Values quoted from earlier work as cited in patent US12042557B2, “Rapid establishment and/or termination of substantial steady-state drug delivery” (Intarcia Therapeutics, Inc., priority 2009, dated 2024).
Like-named read-outs stand apart in the source and are kept apart here.

Columns and labels:
[1] = test system: subjects on metformin-only background treatment, type 2 diabetes mellitus
[2] = in vivo
[3] = Treatment F: oral 100 mg/day, subjects with baseline HbA1c less than 9.0
[4] = Treatment F: oral once a day 100 mg/day, metformin background, Bergenstal 2010

Row | Compound | change of HbA1c for the study [1, 3] [%] | endpoint HbA1c % [1, 3] [%] | change of HbA1c for the study [1, 4] [%] | endpoint HbA1c % [1, 4] [%] | percentage of subjects who achieved an HbA1c of 7% or less [1, 4] [%] | half-life [2]
1 | N[C@@H](CC(=O)N1CCn2c(nnc2C(F)(F)F)C1)Cc1cc(F)c(F)cc1F [sitagliptin, Sitagliptin] | −0.5 | 7.2 | −0.9 | 7.6 | 31 | 
2 | PYY: 36 amino acid residue peptide amide [peptide YY] |  |  |  |  |  | approximately 8 minutes
